Series [1] concerns neuropathic guinea-pigs. Nature of the series: Reversal of mechanical hyperalgesia in a model of neuropathic pain (partial sciatic nerve ligation, paw withdrawal threshold). The class given is in vivo, guinea pig. From the text: Neuropathic hyperalgesia is induced by partial ligation of the left sciatic nerve (Seltzer et al, Pain 43, 1990, 205-218; Campbell et al, Neuroscience 87, 1998, 527-532). Briefly, male Dunkin Hartley guinea pigs (200-250 g) are anaesthetized with isoflurane in N2O:O2, the left sciatic nerve exposed at mid thigh level through a small incision and ⅓ to ½ of the nerve thickness tightly ligated within a 7.0 silk suture. The wound is closed and the animals are allowed to recover from surgery for 12 to 15 days.
Mechanical hyperalgesia is assessed by measuring paw withdrawal thresholds to an increasing pressure stimulus placed onto the dorsal surface of the paw using an analgesymeter (Ugo-Basile, Milan) with a cut-off of 250 g. Withdrawal are measured on both the ipsilateral (ligated) and contralateral (unligated) paw prior to and then up to 6 h following drug or vehicle administration. Reversal of hyperalgesia at each time point is calculated according to the following formula, which uses the contralateral paw as a reference: […]
(§1) The enantiomers of the compound of formula I are administered daily in 0.5% methyl-cellulose/water, with Trileptal™ included in each experiment as positive control. Each experiment uses 6 randomly assigned animals per treatment group. Statistical analysis is carried out on withdrawal threshold data comparing test to vehicle.

The subject of series [2] is neuropathic guinea-pigs. Kind of series: Side-effects observed after administration in the neuropathic pain model. The class given is in vivo, guinea pig. The procedure: as §1
The R-enantiomer of the compound of formula I produces a dose-related reversal of mechanical hyperalgesia in neuropathic guinea-pigs. A maximum reversal of 73% is observed 1 h following administration with a calculated D50 value of 47 mg/kg.

Setting [3] is: 1 h following administration, neuropathic guinea-pigs.
[4] abbreviates: highest dose tested (100 mg/kg).

As for `NC(=O)N1c2ccccc2C[C@@H](O)c2ccccc21` (single isomer, unassigned) [R-enantiomer, R(−)-10,11-dihydro-10-hydroxy-5H-dibenzo[b,f]azepine-5-carboxamide], in series [1] (setting [3]), the “calculated D50 value (reversal of mechanical hyperalgesia)” value is reported as 47 mg/kg and the “maximum reversal of mechanical hyperalgesia” value is reported as 73%. In addition, the “duration of anti-hyperalgesic effect” value in series [1] (6 h following administration) is “significant activity”. Moreover, the side-effects entry in series [2] (highest dose) is “comparatively mild side-effect”.

In the case of `NC(=O)N1c2ccccc2C[C@H](O)c2ccccc21` (single isomer, unassigned) [S-enantiomer, S(+)-10,11-dihydro-10-hydroxy-5H-dibenzo[b,f]azepine-5-carboxamide], in series [1] (setting [4]), the anti-hyperalgesic activity result was “observed” and the “apparent maximal reversal of hyperalgesia” value is 55%. Besides, the anti-hyperalgesic activity entry in series [1] (lower doses (below 100 mg/kg)) is on record as “no significant effect”. In addition, the side-effects entry in series [2] (at doses that reverse mechanical hyperalgesia) is “marked side-effects, principally ataxia and catalepsy”.

The values are drawn from patent US20090054404A1, “USE OF R-10-HYDROXY-10,11-DIHYDRO-CARBAMAZEPINE IN NEUROPATHIC PAIN” (priority 2003, published 2009).
